Test results: patent US8354522B2, “Immunostimulatory oligoribonucleotides” (Coley Pharmaceutical GmbH, priority 2005, dated 2013)
Like-named read-outs stand apart in the source and are kept apart here.

Tested on: Human PBMC
Test: Cytokine production upon human PBMC stimulation (ORN complexed to DOTAP, 16 h, ELISA)
Type: cell-based
Design: key to IFN-alpha / TNF-alpha: +: cytokine production; −: no cytokine production
Settings: for IFN-alpha / TNF-alpha: human PBMC stimulated for 16 h, supernatant ELISA; for EC50 / IFN-alpha max activity / TNF-alpha max activity: human PBMC, ORN complexed to DOTAP, 16 h; for EC50: full titration 2 μM to 0.9 nM; for IFN-alpha max activity / TNF-alpha max activity: mean max activity at 0.6 μM, 3-6 blood donors
Experimental: Human peripheral blood mononuclear cells (PBMCs) were isolated from healthy donors, plated, and stimulated in vitro with various test and control immunostimulatory agents for 16 hours. After 16 hours, the supernatants were collected and then analyzed by ELISA assay. N-U-R1-R2,-Containing Oligoribonucleotides were tested complexed to DOTAP and with full titration curves (7 concentrations), starting from 2 μM ORN complexed to 25 μg/ml DOTAP and with 1/3 dilution steps. Also included were certain negative controls, including medium alone and DOTAP (25 μg/ml culture well; “Liposomes”) alone. The control immunostimulatory agents included the imidazoquinoline R-848 (2 μM with 1/3 dilution steps and 7 concentrations) the reported ligand for TLR7, ORN having TLR8 motifs such as AU and AUU sequences (SEQ ID NO:13-SEQ ID NO:15) ORN having TLR7/8 motifs such as CU, GU and GUU sequences (SEQ ID NO:19-SEQ ID NO:23).
Human PBMC were stimulated with ORN complexed to DOTAP. After 16 hours supernatants were harvested and TNF-alpha and IFN-alpha levels were measured. Mean/Max activities at 0.6 μM of 3-6 blood donors and two individual experiments were determined. […] TLR8 and TLR7/8 ORN are divided by a red line.
Human PBMC were stimulated with ORN complexed to DOTAP. After 16 hours supernatants were harvested and IFN-alpha levels were measured. Mean/Max activities at 0.6 μM and EC50 of full titration curves (range: 2 μM to 0.9 nM) of 3-6 blood donors and two individual experiments were determined. […] Low EC50/high Max activity represents TLR7/8 ORN (FIG. 5a) whereas high EC50 and low Max activity represents TLR8 ORN (FIG. 5b).
The ORN sequences listed in Table 1 were tested for IFN-alpha and TNF-alpha production upon human PBMC stimulation. Human PBMC were stimulated for 16 h with the indicated ORN, and supernatants were harvested and cytokine production measured by ELISA. Table 2 summarizes the min/max activity and EC50 of ORN for IFN-alpha and TNF-alpha production.

Substance | IFN-alpha | TNF-alpha | EC50 (read-out: IFN-alpha EC50) [nM] | EC50 (read-out: TNF-alpha EC50) [nM] | IFN-alpha max activity [pg/mL] | TNF-alpha max activity [pg/mL]
A*A*A*A*U*A*A*A*A*U*A*A*A*A*U*A*A*A*A*U (AAAAUAAAAUAAAAUAAAAU; listed as RNA, chemistry not fully specified) [SEQ ID NO: 18] | − | + |  |  |  | 
A*A*A*U*A*A*A*U*A*A*A*U*A*A*A*U*A*A*A*U (AAAUAAAUAAAUAAAUAAAU; listed as RNA, chemistry not fully specified) [SEQ ID NO: 17] | − | + |  |  |  | 
A*A*U*A*A*U*A*A*U*A*A*U*A*A*U*A*A*U*A*A (AAUAAUAAUAAUAAUAAUAA; listed as RNA, chemistry not fully specified) [SEQ ID NO: 16] | − | + |  |  |  | 
A*U*A*G*G*C*A*C (AUAGGCAC; phosphorothioate linkages, chemistry not fully specified) [SEQ ID NO: 4] | − | + |  |  |  | 
C*C*G*A*G*C*C*A*U*A*U*A*U*A*U*C (CCGAGCCAUAUAUAUC; listed as RNA, chemistry not fully specified) [SEQ ID NO: 39] |  |  | ≥ 1500 | 324 | 356.7 | 19253
C*C*G*A*G*C*C*A*U*A*U*A*U*C*C*C (CCGAGCCAUAUAUCCC; listed as RNA, chemistry not fully specified) [SEQ ID NO: 38] |  |  | ≥ 1500 | 890 | 245 | 14064
C*C*G*A*G*C*C*G*A*A*G*A*U*A*C*C (CCGAGCCGAAGAUACC; listed as RNA, chemistry not fully specified) [SEQ ID NO: 85] |  |  | > 2000 | 215 | 193.7 | 17146
C*C*G*A*G*C*C*G*A*A*G*C*U*A*C*C (CCGAGCCGAAGCUACC; listed as RNA, chemistry not fully specified) [SEQ ID NO: 87] |  |  | > 2000 | 346 | 100.5 | 12979
C*C*G*A*G*C*C*G*A*A*G*C*U*C*C*C (CCGAGCCGAAGCUCCC; listed as RNA, chemistry not fully specified) [SEQ ID NO: 84] |  |  | > 2000 | 377 | 67.76 | 8545
C*C*G*A*G*C*C*G*A*A*G*C*U*G*C*C (CCGAGCCGAAGCUGCC; listed as RNA, chemistry not fully specified) [SEQ ID NO: 88] |  |  | > 2000 |  | 73.19 | 11996
C*C*G*A*G*C*C*G*A*A*G*G*C*A*C*C (CCGAGCCGAAGGCACC; listed as RNA, chemistry not fully specified) [SEQ ID NO: 56] |  |  | > 2000 |  | 59.84 | 4430
C*C*G*A*G*C*C*G*A*A*G*G*U*A*C*C (CCGAGCCGAAGGUACC; listed as RNA, chemistry not fully specified) [SEQ ID NO: 82] |  |  | > 2000 | 219 | 204 | 12595
C*C*G*A*G*C*C*G*A*A*G*G*U*C*C*C (CCGAGCCGAAGGUCCC; listed as RNA, chemistry not fully specified) [SEQ ID NO: 86] |  |  | 767 | 850 | 856.5 | 4178
C*C*G*A*G*C*C*G*A*A*G*G*U*G*C*C (CCGAGCCGAAGGUGCC; listed as RNA, chemistry not fully specified) [SEQ ID NO: 83] |  |  | > 2000 | 215 | 96.22 | 12207
C*C*G*A*G*C*C*G*A*A*U*A*A*C*C*C (CCGAGCCGAAUAACCC; listed as RNA, chemistry not fully specified) [SEQ ID NO: 40] |  |  | ≥ 1500 | 352 | 235.3 | 18083
C*C*G*A*G*C*C*G*A*A*U*A*C*C*C*C (CCGAGCCGAAUACCCC; listed as RNA, chemistry not fully specified) [SEQ ID NO: 42] |  |  | ≥ 1500 | 395 | 392.4 | 17418
C*C*G*A*G*C*C*G*A*A*U*C*C*C*C*C (CCGAGCCGAAUCCCCC; listed as RNA, chemistry not fully specified) [SEQ ID NO: 44] |  |  | ≥ 1500 | 321 | 305.6 | 19473
C*C*G*A*G*C*C*G*A*A*U*G*U*A*C*C (CCGAGCCGAAUGUACC; listed as RNA, chemistry not fully specified) [SEQ ID NO: 63] |  |  | 1840 | 309 | 177.3 | 34219
C*C*G*A*G*C*C*G*A*A*U*U*C*A*C*C (CCGAGCCGAAUUCACC; listed as RNA, chemistry not fully specified) [SEQ ID NO: 80] |  |  | 33 | 217 | 1225 | 28108
C*C*G*A*G*C*C*G*A*A*U*U*U*A*C*C (CCGAGCCGAAUUUACC; listed as RNA, chemistry not fully specified) [SEQ ID NO: 60] |  |  | 109 | 187 | 1463 | 36562
C*C*G*A*G*C*C*G*A*C*U*G*U*A*C*C (CCGAGCCGACUGUACC; listed as RNA, chemistry not fully specified) [SEQ ID NO: 61] |  |  | 736 | 141 | 587.7 | 42180
C*C*G*A*G*C*C*G*A*C*U*U*U*A*C*C (CCGAGCCGACUUUACC; listed as RNA, chemistry not fully specified) [SEQ ID NO: 57] |  |  | 77 | 213 | 1499 | 33624
C*C*G*A*G*C*C*G*A*G*C*U*C*A*C*C (CCGAGCCGAGCUCACC; listed as RNA, chemistry not fully specified) [SEQ ID NO: 81] |  |  | 667 | 802 | 842.9 | 14519
C*C*G*A*G*C*C*G*A*G*U*U*C*A*C*C [SEQ ID NO: 67] (CCGAGCCGAGUUCACC; listed as RNA, chemistry not fully specified) |  |  | 81 | 79 | 2094 | 40729
C*C*G*A*G*C*C*G*A*G*U*U*C*A*C*C [SEQ ID NO: 77] (CCGAGCCGAGUUCACC; listed as RNA, chemistry not fully specified) |  |  | 151 | 257 | 2519 | 21820
C*C*G*A*G*C*C*G*A*G*U*U*U*A*C*C (CCGAGCCGAGUUUACC; listed as RNA, chemistry not fully specified) [SEQ ID NO: 58] |  |  | 63 | 203 | 1760 | 36627
C*C*G*A*G*C*C*G*A*T*U*G*U*A*C*C (CCGAGCCGANUGUACC; Oligoribonucleotide, chemistry of T and the '*' linkage is not given here, further chemistry not given here) [SEQ ID NO: 62] |  |  | 276 | 343 | 1945 | 37334
C*C*G*A*G*C*C*G*A*T*U*U*C*A*C*C [SEQ ID NO: 68] (CCGAGCCGANUUCACC; Oligoribonucleotide, chemistry of T and the '*' linkage is not given here, further chemistry not given here) |  |  | 18 | 217 | 1821 | 29647
